In ChEMBL document CHEMBL4184118, “Carbazole-containing amides and ureas: Discovery of cryptochrome modulators as antihyperglycemic agents” (Bioorg Med Chem Lett, 2018):
Converted amounts (≈) assume the structure as drawn. The source made the active and inactive calls. No cut-off for these calls is given here.

Assays:
CRY2/PER2 = biological target: T1, CRY2/PER2 (Homo sapiens, UniProt O15055+Q49AN0); assay: Modulation activity at CRY2/PER2 in human U2OS cells harboring per2-dLuc assessed as activation of per2 activity measured every 100 mins for 5 days by luciferase reporter gene assay; format: cell-based
T1 sequence (O15055 whole entry): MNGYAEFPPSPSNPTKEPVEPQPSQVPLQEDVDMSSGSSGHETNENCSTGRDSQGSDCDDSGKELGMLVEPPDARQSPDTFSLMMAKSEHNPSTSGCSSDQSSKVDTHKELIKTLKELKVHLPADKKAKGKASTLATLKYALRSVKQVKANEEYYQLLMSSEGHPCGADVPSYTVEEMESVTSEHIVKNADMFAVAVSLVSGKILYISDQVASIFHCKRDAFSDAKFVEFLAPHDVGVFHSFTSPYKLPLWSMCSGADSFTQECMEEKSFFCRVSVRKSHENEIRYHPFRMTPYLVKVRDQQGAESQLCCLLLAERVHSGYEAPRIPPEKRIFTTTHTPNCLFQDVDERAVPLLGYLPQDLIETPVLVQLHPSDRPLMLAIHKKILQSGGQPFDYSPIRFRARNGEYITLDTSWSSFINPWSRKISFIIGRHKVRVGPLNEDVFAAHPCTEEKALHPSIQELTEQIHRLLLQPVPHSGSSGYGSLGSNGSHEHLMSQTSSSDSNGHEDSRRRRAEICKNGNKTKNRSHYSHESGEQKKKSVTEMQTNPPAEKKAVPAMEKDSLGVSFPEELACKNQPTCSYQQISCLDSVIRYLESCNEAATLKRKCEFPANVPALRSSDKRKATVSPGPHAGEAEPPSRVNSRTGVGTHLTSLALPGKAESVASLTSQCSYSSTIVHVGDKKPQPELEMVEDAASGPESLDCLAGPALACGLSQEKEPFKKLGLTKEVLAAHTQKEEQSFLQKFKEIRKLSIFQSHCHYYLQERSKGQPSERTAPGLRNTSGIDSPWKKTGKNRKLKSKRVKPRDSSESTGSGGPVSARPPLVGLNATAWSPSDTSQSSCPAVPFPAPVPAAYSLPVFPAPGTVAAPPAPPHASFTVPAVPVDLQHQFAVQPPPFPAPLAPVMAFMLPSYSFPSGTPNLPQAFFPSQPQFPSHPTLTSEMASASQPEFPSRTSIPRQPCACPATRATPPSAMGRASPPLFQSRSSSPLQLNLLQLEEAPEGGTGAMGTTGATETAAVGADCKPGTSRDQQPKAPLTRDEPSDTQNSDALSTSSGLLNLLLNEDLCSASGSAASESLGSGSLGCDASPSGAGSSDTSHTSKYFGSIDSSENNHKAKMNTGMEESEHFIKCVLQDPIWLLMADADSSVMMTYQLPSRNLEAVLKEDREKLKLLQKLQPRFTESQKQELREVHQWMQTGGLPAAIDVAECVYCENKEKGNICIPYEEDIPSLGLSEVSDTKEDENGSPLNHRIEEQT
T1 sequence (Q49AN0 whole entry): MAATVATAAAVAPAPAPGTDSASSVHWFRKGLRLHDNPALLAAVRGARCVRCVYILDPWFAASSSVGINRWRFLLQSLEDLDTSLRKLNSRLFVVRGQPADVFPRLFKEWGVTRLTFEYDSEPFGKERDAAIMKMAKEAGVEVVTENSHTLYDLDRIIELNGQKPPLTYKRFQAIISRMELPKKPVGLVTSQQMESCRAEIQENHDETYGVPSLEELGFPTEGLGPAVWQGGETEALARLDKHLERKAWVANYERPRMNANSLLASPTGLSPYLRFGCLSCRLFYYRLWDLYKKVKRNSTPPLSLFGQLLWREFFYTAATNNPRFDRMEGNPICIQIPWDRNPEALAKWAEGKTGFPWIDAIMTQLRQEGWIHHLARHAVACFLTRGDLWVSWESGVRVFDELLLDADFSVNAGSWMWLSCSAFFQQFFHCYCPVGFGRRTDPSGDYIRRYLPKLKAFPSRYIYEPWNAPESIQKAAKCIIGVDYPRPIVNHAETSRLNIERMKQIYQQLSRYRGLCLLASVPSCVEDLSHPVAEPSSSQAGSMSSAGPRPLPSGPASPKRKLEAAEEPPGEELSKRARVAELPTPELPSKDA

[1] = Kinetic solubility in simulated gastric fluid; format: physicochemical; details: read-out: Kinetic_solubility
[2] = MRT in db/db mouse at 30 mg/kg, po qd after 1 to 24 hrs; format: ADME, organism-based; details: in vivo
[3] = Half life in db/db mouse at 30 mg/kg, po qd; format: ADME, organism-based; details: in vivo
[4] = Total Cmax in db/db mouse at 30 mg/kg, po qd after 1 to 24 hrs; format: ADME, organism-based; design: dose 30 mg/kg, route oral; details: in vivo
Mus musculus [5] = assay: Unbound Cmax in db/db mouse at 30 mg/kg, po qd after 1 to 24 hrs; format: ADME, organism-based; details: in vivo
[6] = biological target: Voltage-gated inwardly rectifying potassium channel KCNH2 (Homo sapiens, UniProt Q12809); assay: Inhibition of human ERG
Chain of Voltage-gated inwardly rectifying potassium channel KCNH2 (Q12809 whole entry): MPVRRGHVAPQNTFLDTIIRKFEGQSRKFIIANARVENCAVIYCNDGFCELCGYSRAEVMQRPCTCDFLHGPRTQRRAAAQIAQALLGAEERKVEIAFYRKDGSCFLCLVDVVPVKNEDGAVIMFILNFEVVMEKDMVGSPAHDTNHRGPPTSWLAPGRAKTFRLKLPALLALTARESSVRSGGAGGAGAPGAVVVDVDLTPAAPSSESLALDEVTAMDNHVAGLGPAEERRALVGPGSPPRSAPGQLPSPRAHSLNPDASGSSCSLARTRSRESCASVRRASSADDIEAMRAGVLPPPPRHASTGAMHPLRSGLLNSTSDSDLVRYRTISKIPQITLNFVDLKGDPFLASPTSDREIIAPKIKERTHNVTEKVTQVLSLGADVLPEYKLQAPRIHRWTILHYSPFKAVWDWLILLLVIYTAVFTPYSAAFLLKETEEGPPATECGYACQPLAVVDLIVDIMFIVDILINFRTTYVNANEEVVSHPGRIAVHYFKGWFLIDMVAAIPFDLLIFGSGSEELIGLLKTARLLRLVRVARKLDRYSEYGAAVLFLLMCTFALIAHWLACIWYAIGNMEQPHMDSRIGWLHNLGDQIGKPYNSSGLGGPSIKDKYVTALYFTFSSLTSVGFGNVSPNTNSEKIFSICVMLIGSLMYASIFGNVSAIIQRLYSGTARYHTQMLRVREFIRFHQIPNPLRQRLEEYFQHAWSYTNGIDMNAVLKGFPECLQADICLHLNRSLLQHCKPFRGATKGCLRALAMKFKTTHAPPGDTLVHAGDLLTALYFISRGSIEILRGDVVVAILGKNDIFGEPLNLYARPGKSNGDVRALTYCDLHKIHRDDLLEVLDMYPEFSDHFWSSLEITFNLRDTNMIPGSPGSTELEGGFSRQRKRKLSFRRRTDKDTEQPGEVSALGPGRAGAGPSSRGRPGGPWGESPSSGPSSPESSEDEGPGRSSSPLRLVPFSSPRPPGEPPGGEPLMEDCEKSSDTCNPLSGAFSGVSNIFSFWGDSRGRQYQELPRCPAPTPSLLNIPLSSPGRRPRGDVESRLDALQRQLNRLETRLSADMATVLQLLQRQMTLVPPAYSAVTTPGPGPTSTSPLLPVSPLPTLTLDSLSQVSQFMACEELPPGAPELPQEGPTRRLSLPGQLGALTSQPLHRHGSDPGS

Salmonella typhimurium = assay: Genotoxicity in Salmonella typhimurium by Ames test; format: toxicity, organism-based; details: salmonella enterica subsp. enterica serovar typhimurium
Mus musculus [7] = assay: Antidiabetic activity in obese insulin-resistant db/db mouse assessed as reduction in blood glucose AUC at 100 mg/kg, po qd dosed for 7 days by oGTT relative to control; format: functional; design: scale not given: the % may be the effect or the level left
Mus musculus [8] = assay: Antidiabetic activity in obese insulin-resistant po dosed db/db mouse assessed as reduction in blood glucose AUC administered qd for 7 days by oGTT; format: functional, organism-based
Mus musculus [9] = assay: Hypoglycemic activity in obese insulin-resistant db/db mouse assessed as decrease in fasting blood glucose level at 100 mg/kg, po qd dosed for 7 days relative to control; format: functional; design: scale not given: the % may be the effect or the level left
[10] = Plasma concentration in db/db mouse at 30 mg/kg, po measured at 1 to 24 hrs; format: ADME, organism-based; details: in vivo
[11] = Drug uptake in db/db mouse liver at 30 mg/kg, po measured at 1 to 24 hrs; format: ADME, organism-based; details: in vivo
[12] = Drug uptake in db/db mouse white adipose at 30 mg/kg, po measured at 1 to 24 hrs; format: ADME, organism-based, White adipose tissue; details: in vivo
[13] = Drug uptake in db/db mouse brown adipose at 30 mg/kg, po measured at 1 to 24 hrs; format: ADME, organism-based, Brown adipose tissue; details: in vivo
[14] = Drug uptake in db/db mouse skeletal muscle at 30 mg/kg, po measured at 1 to 24 hrs; format: ADME, organism-based, Skeletal muscle tissue; details: in vivo
Mus musculus [15] = assay: In vivo induction of circadian clock modulation in db/db mouse at 30 mg/kg, po; format: functional, organism-based

Row | SMILES | EC50 (CRY2/PER2) | solubility kinetic [1] | MRT [2] | half-life [3] | Cmax [4] | fCmax (Mus musculus [5]) | other results
1 | O=C1CCCN1CC(O)Cn1c2ccc(F)cc2c2cc(F)ccc21 (stereo not given) | 0.625 µM | 148 µM (≈ 51.1 µg/mL) | 3.32 h | 2.95 h | 0.415 µM | 0.011 µM | –
2 | CC1CN(CC(O)Cn2c3ccc(F)cc3c3cc(F)ccc32)C(=O)N1 (stereo not given) | 0.667 µM | 181 µM (≈ 64.9 µg/mL) | 4.16 h | 2.58 h | 0.557 µM | 0.01 µM | –
3 | O=C1C2CCC(C2)N1CC(O)Cn1c2ccc(F)cc2c2cc(F)ccc21 (stereo not given) | 0.163 µM | 168 µM (≈ 62.2 µg/mL) | 2.92 h | 2.14 h | 0.551 µM | 0.01 µM | –
4 | CN1CCCN(CC(O)Cn2c3ccc(F)cc3c3cc(F)ccc32)C1=O (stereo not given) | 0.719 µM | 162 µM (≈ 60.4 µg/mL) | 3.51 h | 2.57 h | 0.063 µM | 0.002 µM | –
5 | O=C1NCCN1CC(O)Cn1c2ccc(F)cc2c2cc(F)ccc21 (stereo not given) | – | 142 µM (≈ 48.9 µg/mL) | 6.76 h | 2.83 h | 1.09 µM | 0.056 µM | inhibition (INH) [6]: Not Active; Activity (Salmonella typhimurium): Non-Toxic; Activity (Mus musculus [7]): 39%; Activity (Mus musculus [8]): Dose-dependent effect; Activity (Mus musculus [9]): 14%; Drug uptake [10]: Active; Drug uptake [11]: Active; Drug uptake [12]: Active; Drug uptake [13]: Active; Drug uptake [14]: Active; Activity (Mus musculus [15]): Active
6 | O=C1NCCCN1CC(O)Cn1c2ccc(F)cc2c2cc(F)ccc21 (stereo not given) | 0.188 µM | 85.6 µM (≈ 30.8 µg/mL) | 2.98 h | 2.39 h | 1.02 µM | 0.045 µM | –
7 | O=C1C(F)CCN1CC(O)Cn1c2ccc(F)cc2c2cc(F)ccc21 (stereo not given) | – | 184 µM (≈ 66.7 µg/mL) | 3.27 h | 2.97 h | 1.01 µM | 0.03 µM | –
8 | COC1CCCN(CC(O)Cn2c3ccc(F)cc3c3cc(F)ccc32)C1=O (stereo not given) | 0.33 µM | 188 µM (≈ 72.9 µg/mL) | 2.68 h | 2.16 h | 0.235 µM | 0.007 µM | –
9 | CC1CCC(=O)N(CC(O)Cn2c3ccc(F)cc3c3cc(F)ccc32)C1 (stereo not given) | 0.224 µM | – | – | – | – | – | –
10 | O=C1N(CC(O)Cn2c3ccc(F)cc3c3cc(F)ccc32)CCN1c1ccccc1 (stereo not given) | 0.528 µM | – | – | – | – | – | –
11 | O=C1CC2CC2CN1CC(O)Cn1c2ccc(F)cc2c2cc(F)ccc21 (stereo not given) | 0.149 µM | – | – | – | – | – | –
